These results are taken from BindingDB's records for doi:10.1016/j.bmcl.2011.09.133 (Genzyme, 2011).

A short description of the assay: Antagonist activity against human CCR5 assessed as inhibition of HIV1 gp120-induced cell-cell fusion between human HeLa P4/R5 cells and CHO-tat10 cells expressing HIV-1JRFL viral envolop protein after 20 hrs by beta-galactosidase reporter gene assay.
A word on the IC50: it is the concentration that gives 50% inhibition. Turning to `Cc1ccncc1CN(c1ccc(N2CCOCC2)cc1)C1CCN([C@H](C)CCNC(=O)c2c(C)cc(Cl)nc2C)CC1`, the half-maximal inhibitory concentration (IC50) came out at 1590 nM.

With `COc1ccc(N(Cc2cccc(C#N)n2)C2CCN([C@H](C)CCNC(=O)c3c(C)cc(C#N)nc3C)CC2)cc1`, the concentration for half-maximal inhibition (IC50) amounted to 0.3 nM. Then `Cc1ccncc1CN(c1ccccc1)C1CCN([C@H](C)CCNC(=O)c2c(C)cc(C#N)nc2C)CC1`, with 7 nM. `Cc1ccncc1CN(c1ccc(OCC(N)=O)cc1)C1CCN([C@H](C)CCNC(=O)c2c(C)cc(C#N)nc2C)CC1`: the half-inhibitory concentration (IC50) came to 0.98 nM.

For `Cc1ccncc1CN(c1ccc([S+](C)[O-])cc1)C1CCN([C@H](C)CCNC(=O)c2c(C)ncnc2C)CC1` (stereo partly specified), the IC50 is 130 nM.

With `COCCOc1ccc(N(Cc2cnccc2C)C2CCN([C@H](C)CCNC(=O)c3c(C)cc(F)nc3C)CC2)cc1`, the IC50 was 1.3 nM. Then `COCCOc1ccc(N(Cc2cnccc2C)C2CCN([C@H](C)CCNC(=O)c3c(C)cc(C#N)nc3C)CC2)cc1`, with 0.8 nM.

On to `CC(CCNC(=O)c1c(Cl)cncc1Cl)N1CCC(N(Cc2cccc(C#N)c2)c2ccc(OC(F)(F)F)cc2)CC1` (stereo unspecified), for which the IC50 was 3 nM. Then `COc1ccc(N(Cc2cccc(C#N)c2)C2CCN(C(C)CCNC(=O)c3c(Cl)cncc3Cl)CC2)cc1` (stereo unspecified), with 2 nM; and `CC(CCNC(=O)c1c(Cl)cncc1Cl)N1CCC(N(Cc2cccc(C#N)c2)c2ccc(C(F)(F)F)cc2)CC1` (stereo unspecified), with 3 nM; and `CC(CCNC(=O)c1c(Cl)cncc1Cl)N1CCC(N(Cc2cccc(C#N)c2)c2ccc(Br)cc2)CC1` (stereo unspecified), with 8 nM. The result for `COc1cccc(CN(c2ccc(Br)cc2)C2CCN(C(C)CCNC(=O)c3c(Cl)cncc3Cl)CC2)c1` (stereo unspecified) reads 387 nM. Regarding `CC(CCNC(=O)c1c(Cl)cncc1Cl)N1CCC(N(Cc2cccc(Cl)c2)c2ccc(Br)cc2)CC1` (stereo unspecified), the IC50 turned out to be 30 nM. The result for `CC(CCNC(=O)c1c(Cl)cncc1Cl)N1CCC(N(Cc2ccccc2)c2ccc(Oc3ccc(C(=O)O)cc3)cc2)CC1` (stereo unspecified) reads 11 nM; that for `CC(CCNC(=O)c1c(Cl)cncc1Cl)N1CCC(N(Cc2ccccc2)c2ccc(C(=O)N(C)C)cc2)CC1` (stereo unspecified), 116 nM. Then `COC(=O)c1ccc(N(Cc2ccccc2)C2CCN(C(C)CCNC(=O)c3c(Cl)cncc3Cl)CC2)cc1` (stereo unspecified), with 90 nM. The result for `CC(CCNC(=O)c1c(Cl)cncc1Cl)N1CCC(N(Cc2ccccc2)c2ccc(C#N)cc2)CC1` (stereo unspecified) reads 19 nM.

Take `CC(CCNC(=O)c1c(Cl)cncc1Cl)N1CCC(N(Cc2ccccc2)c2ccc(OC(F)(F)F)cc2)CC1` (stereo unspecified): the IC50 worked out at 26 nM. For the compound `COc1ccc(N(Cc2ccccc2)C2CCN(C(C)CCNC(=O)c3c(Cl)cncc3Cl)CC2)cc1` (stereo unspecified), the half-inhibitory concentration (IC50) was found to be 50 nM. The result for `CC(CCNC(=O)c1c(Cl)cncc1Cl)N1CCC(N(Cc2ccccc2)c2ccc(C(F)(F)F)cc2)CC1` (stereo unspecified) reads 34 nM. The result for `COc1ccc(N(Cc2cccc(C#N)n2)C2CCN([C@H](C)CCNC(=O)c3c(C)cc(Cl)nc3C)CC2)cc1` reads 0.3 nM; that for `COc1ccc(N(Cc2cccc(C#N)n2)C2CCN([C@H](C)CCNC(=O)c3c(C)cc(F)nc3C)CC2)cc1`, 0.7 nM.

`COCCOc1ccc(N(Cc2cnccc2C)C2CCN([C@H](C)CCNC(=O)c3c(C)cc(Cl)nc3C)CC2)cc1`: the IC50 is 0.6 nM. Then `COc1ccc(N(Cc2cnccc2C)C2CCN([C@H](C)CCNC(=O)c3c(C)cc(C(=O)NC(C)C)nc3C)CC2)cc1`, with 0.09 nM; and `COc1ccc(N(Cc2cnccc2C)C2CCN([C@H](C)CCNC(=O)c3c(C)cc(C#N)nc3C)CC2)cc1`, with 0.3 nM; and `COc1ccc(N(Cc2cccnc2)C2CCN([C@H](C)CCNC(=O)c3c(C)cc(F)nc3C)CC2)cc1`, with 1.6 nM. The result for `COc1ccc(N(Cc2cnccc2C)C2CCN([C@@H](C)CCNC(=O)c3c(C)cc(Cl)nc3C)CC2)cc1` reads 40 nM; that for `COc1ccc(N(Cc2cnccc2C)C2CCN([C@H](C)CCNC(=O)c3c(C)cc(F)nc3C)CC2)cc1`, 0.3 nM. `COc1ccc(N(Cc2cccnc2)C2CCN([C@H](C)CCNC(=O)c3c(C)cc(Cl)nc3C)CC2)cc1`: the IC50 came to 1.5 nM. With `COc1ccc(N(Cc2cnccc2C)C2CCN([C@H](C)CCNC(=O)c3c(C)cc(Cl)nc3C)CC2)cc1`, the half-inhibitory concentration (IC50) came to 0.2 nM. The result for `COc1ccc(N(Cc2cnccc2C)C2CCN([C@H](C)CCNC(=O)c3cnc(Cl)cc3C)CC2)cc1` reads 12.3 nM; that for `COc1ccc(N(Cc2cnccc2C)C2CCN([C@H](C)CCNC(=O)c3c(C)ccnc3Cl)CC2)cc1`, 0.7 nM; that for `COc1ccc(N(Cc2cnccc2C)C2CCN([C@H](C)CCNC(=O)c3c(C)ccnc3C)CC2)cc1`, 2.4 nM. Consider `COc1ccc(N(Cc2cnccc2C)C2CCN([C@H](C)CCNC(=O)c3c(C)cncc3C)CC2)cc1`, for which the half-maximal inhibitory concentration (IC50) was 7 nM. Then `CC(CCNC(=O)c1c(Cl)cncc1Cl)N1CCC(N(Cc2cccc(C#N)c2)c2ccc(C#N)cc2)CC1` (stereo unspecified), with 12 nM; and `CC(CCNC(=O)c1c(Cl)cncc1Cl)N1CCC(N(Cc2ccccc2)c2ccc(Br)cc2)CC1` (stereo unspecified) [N-(3-(4-(benzyl(4-bromophenyl)amino)piperidin-1-yl)butyl)-3,5-dichloroisonicotinamide], with 49 nM.
